Experimental data reported in US20260103471A1, “CYCLIC UREA THIAZOLYL COMPOUNDS FOR TREATMENT OF HSV” (Assembly Biosciences, Inc., priority 2022, published 2026).

System: HSV-2 G strain
Experiment: HSV-2 Antiviral Assay (Vero cells, cell viability)
Type: cell-based
Conditions: Human alphaherpesvirus 2, Vero, 120 h, Vero cells, 5 days
Description: Vero cells were cultured in Dulbecco's Modified Eagle Medium (DMVEM) supplemented with […] and 100 units/mL penicillin and streptomycin. The cells were passaged 2-3 times per week to maintain sub-confluent densities.
Vero cells were seeded into 96-well plates at a density of 1.0×10^4 cells per well and allowed to attach overnight. Following attachment, the media was replaced with 50 μL of infection medium (DMEM supplemented with 2% fetal bovine serum and 100 units/mL penicillin and streptomycin). A Tecan D300e digital dispenser was then used to add compounds to the culture using an 8-point 3-fold serial dilution format. The DMSO concentration was normalized to 0.5% for all treatments. Following compound addition, 50 μL of infection medium containing 160 TCID50 HSV-2 G strain was added to the cells and incubated at 37° C. for 5 days. After the incubation, 10 μL/well of WST-8 chromogenic reagent was added and the plates incubated at 37° C. for 3 hours. Following the incubation, cell viability was quantified by measuring the absorbance at 460 nm and 620 nm using a Tecan Infinite M1000 Pro plate reader.

[1] = 160 TCID50 HSV-2 G strain, cell viability

Row | SMILES | EC50 [1] [nM] | EC50 [nM]
1 | Cc1nc(N2CCCN(c3ccc(-c4cc(F)cc5cc(C(N)=O)sc45)cc3)C2=O)sc1S(N)(=O)=O [Compound 254] | 100 to 1000 | 
2 | COc1ccncc1-c1ccc(N2CCCN(c3nc(C)c(S(N)(=O)=O)s3)C2=O)cc1 [Compound 233] | 100 to 1000 | 
3 | Cc1nc(N2CCCN(c3ccc(-c4cccc5c4C(F)(F)CCO5)cc3)C2=O)sc1S(N)(=O)=O [Compound 266] | 100 to 1000 | 
4 | Cc1nc(N2CCCN(c3ccc(-c4snc5c(F)cc(F)c(F)c45)cc3)C2=O)sc1S(N)(=O)=O [Compound 308] | 100 to 1000 | 
5 | Cc1nc(N2CCCN(c3ccc(-c4cc(F)ccc4F)cc3)C2=O)sc1S(=O)(=O)NCCCCO [Compound 389] | < 100 | 
6 | Cc1nc(N2C[C@@H](C(C)(C)F)CN(c3ccc(-c4cc(F)ccc4F)cc3)C2=O)sc1S(N)(=O)=O (single isomer, unassigned) [Compound 351] | < 100 | 
7 | Cc1nc(N2CCCN(c3ccc(-c4cccc5c4cnn5S(C)(=O)=O)cc3)C2=O)sc1S(N)(=O)=O [Compound 57] | 1000 to 5000 | 
8 | Cc1nc(N2CCCN(c3ccc(-c4cc(F)c(F)c(F)c4)cc3)C2=O)sc1S(N)(=O)=O [Compound 188] | 100 to 1000 | 
9 | Cc1nc(N2CCCCN(c3ccc(-c4cccc5ncsc45)cc3)C2=O)sc1[S@](C)(=N)=O (single isomer, unassigned) [Compound 430] | < 100 | 
10 | COc1c(F)cc(F)cc1-c1ccc(N2CC(F)(F)CN(c3nc(C)c(S(N)(=O)=O)s3)C2=O)cc1 [Compound 375] | < 100 | 
11 | COCc1c(F)cc(F)cc1-c1ccc(N2CCCN(c3nc(C)c(S(N)(=O)=O)s3)C2=O)cc1 [Compound 221] | < 100 | 
12 | Cc1nc(N2CCCN(c3ccc(-c4ccc(C#N)c5nsnc45)cc3)C2=O)sc1S(N)(=O)=O [Compound 286] | 1000 to 5000 | 
13 | Cc1nc(N2CCCN(c3ccc(-c4cccc(-c5cncs5)c4)cc3)C2=O)sc1S(N)(=O)=O [Compound 31] | < 100 | 
14 | COc1ccc(F)cc1-c1ccc(N2CCCN(c3nc(C)c(S(N)(=O)=O)s3)C2=O)cc1 [Compound 203] | < 100 | 
15 | Cc1nc(N2CCCN(c3ccc(-c4cc(F)ccc4F)cc3)C2=O)sc1S(=O)(=O)N1CC2(COC2)C1 [Compound 403] | < 100 | 
16 | Cc1nc(N2CCCN(c3ccc(-c4cc(F)ccn4)cc3)C2=O)sc1S(=O)(=O)NC1CC1 [Compound 408] | < 100 | 
17 | COc1cc(-c2ccc(N3CCCN(c4nc(C)c(S(N)(=O)=O)s4)C3=O)cc2)c2nsnc2c1 [Compound 303] | < 100 | 
18 | Cc1nc(N2CCCN(c3ccc(-c4cc(F)cc5nsnc45)cc3)C2=O)sc1S(=O)(=O)NCCCO [Compound 418] | < 100 | 
19 | Cc1nc(N2CCCN(c3ccc(-c4scnc4C#N)cc3)C2=O)sc1S(N)(=O)=O [Compound 47] | 100 to 1000 | 
20 | Cc1nc(N2CCCN(c3ccc(-c4cccc(Cl)c4)cc3)C2=O)sc1S(N)(=O)=O [Compound 191] | < 100 | 
21 | Cc1nc(N2CCCN(c3ccc(-c4ccccc4F)cc3)C2=O)sc1S(C)(=N)=O (centres unmarked) [Compound 142] | 100 to 1000 | 

Row | SMILES | EC50 [1] [nM] | EC50 [nM]
22 | COc1c(F)cc(F)cc1-c1ccc(N2C[C@H](C(C)(C)O)CN(c3nc(C)c(S(N)(=O)=O)s3)C2=O)cc1 (single isomer, unassigned) [Compound 347] | 100 to 1000 | 
23 | Cc1nc(N2CCCN(c3ccc(-c4cccc5cc(N)ncc45)cc3)C2=O)sc1S(N)(=O)=O [Compound 268] | < 100 | 
24 | CN=S(C)(=O)c1sc(N2CCCN(c3ccc(-c4ccccc4F)cc3)C2=O)nc1C (centres unmarked) [Compound 145] | 100 to 1000 | 
25 | Cc1nc(N2CCCN(c3ccc(-c4cccc(N)n4)cc3)C2=O)sc1S(=O)(=O)NC1CC1 [Compound 410] | < 100 | 
26 | Cc1nc(N2CCCN(c3ccc(-c4cccc5c4OCCC5(F)F)cc3)C2=O)sc1S(N)(=O)=O [Compound 267] | 100 to 1000 | 
27 | Cc1nc(N2CCCN(c3ccc(-c4cc(Cl)cc(F)c4F)cc3)C2=O)sc1S(N)(=O)=O [Compound 214] | < 100 | 
28 | Cc1nc2c(-c3ccc(N4CCCN(c5nc(C)c(S(N)(=O)=O)s5)C4=O)cc3)cccc2s1 [Compound 72] | < 100 | 
29 | Cc1nc(N2CCCN(c3ccc(-c4ccccc4C4(C#N)CC4)cc3)C2=O)sc1S(N)(=O)=O [Compound 23] | 1000 to 5000 | 
30 | Cc1nc(N2CCCN(c3ccc(-c4cc(C#N)cc5nsnc45)cc3)C2=O)sc1S(N)(=O)=O [Compound 304] | < 100 | 
31 | Cc1nc(N2CCCN(c3ccc(-c4cc(Cl)ccc4F)cc3)C2=O)sc1S(N)(=O)=O [Compound 27] | < 100 | 
32 | COc1c(F)cc(F)cc1-c1ccc(N2C[C@@H](C(F)(F)F)CN(c3nc(C)c(S(N)(=O)=O)s3)C2=O)cc1 (single isomer, unassigned) [Compound 373] | < 100 | 
33 | Cc1nc(N2C[C@@H](O)CN(c3ccc(-c4cc(F)ccc4F)cc3)C2=O)sc1S(N)(=O)=O (single isomer, unassigned) [Compound 355] | < 100 | 
34 | Cc1nc(N2CCCN(c3ccc(-c4ccccc4C#CC4CC4)cc3)C2=O)sc1S(N)(=O)=O [Compound 220] | < 100 | 
35 | Cc1nc(N2C[C@H](C)CN(c3ccc(-c4ccccc4)cc3)C2=O)sc1S(N)(=O)=O (single isomer, unassigned) [Compound 327] | < 100 | 
36 | Cc1nc(N2C[C@@H](C(C)(C)O)CN(c3ccc(-c4cc(F)ccc4F)cc3)C2=O)sc1S(N)(=O)=O (single isomer, unassigned) [Compound 344] | < 100 | 
37 | NS(=O)(=O)c1sc(N2CCCN(c3ccc(-c4cc(F)ccc4F)cc3)C2=O)nc1CO [Compound 440, 2-(3-(2′,5′-difluoro-[1,1′-biphenyl]-4-yl)-2-oxotetrahydropyrimidin-1(2H)-yl)-4-(hydroxymethyl)thiazole-5-sulfonamide] | < 100 | 
38 | Cc1nc(N2CC(CO)CN(c3ccc(-c4cc(F)ccc4F)cc3)C2=O)sc1S(N)(=O)=O (centres unmarked) [Compound 356] | < 100 | 
39 | Cc1nc(N2C[C@@H](C#N)CN(c3ccc(-c4cc(F)ccc4F)cc3)C2=O)sc1S(N)(=O)=O (single isomer, unassigned) [Compound 362] | < 100 | 
40 | Cc1nc(N2CCCN(c3ccc(-c4cncc5ncsc45)cc3)C2=O)sc1S(N)(=O)=O [Compound 269] | 100 to 1000 | 
41 | COc1ccc(F)cc1-c1ccc(N2C[C@@H](C)CN(c3nc(C)c(S(N)(=O)=O)s3)C2=O)cc1 (single isomer, unassigned) [Compound 330] | < 100 | 
42 | Cc1nc(N2CCCN(c3ccc(-c4cncs4)cc3)C2=O)sc1S(N)(=O)=O [Compound 49] | 100 to 1000 | 

Row | SMILES | EC50 [1] [nM] | EC50 [nM]
43 | Cc1nc(N2CCCN(c3ccc(-c4cc(F)ccc4F)cc3)C2=O)sc1S(=O)(=O)N1CC[C@@H](N)C1 [Compound 399] | 100 to 1000 | 
44 | COc1ccc(F)cc1-c1ccc(N2CC(C)CN(c3nc(C)c(S(N)(=O)=O)s3)C2=O)cc1 (centres unmarked) [Compound 329] | < 100 | 
45 | Cc1nc(N2CCCN(c3ccc(-c4cncc5nn(C)cc45)cc3)C2=O)sc1S(N)(=O)=O [Compound 271] | 1000 to 5000 | 
46 | Cc1nc(N2CCCN(c3ccc(-c4cc(F)ccc4F)c4scnc34)C2=O)sc1S(N)(=O)=O [Compound 311] | 100 to 1000 | 
47 | Cc1nc(N2C[C@@H](C(F)(F)F)CN(c3ccc(-c4cc(F)ccc4F)cc3)C2=O)sc1S(N)(=O)=O (single isomer, unassigned) [Compound 371] | < 100 | 
48 | Cc1nc(N2CCCN(c3ccc(-c4cc(F)ccc4F)cc3)C2=O)sc1S(=O)(=O)N1CC[C@H](N)C1 [Compound 398] | 100 to 1000 | 
49 | Cc1nc(N2CCCN(c3ccc(-c4ccccc4OC4CC4)cc3)C2=O)sc1S(N)(=O)=O [Compound 200] | 100 to 1000 | 
50 | Cc1nc(N2CCCN(c3ccc(-c4snc5ccc(-c6ccccc6)cc45)cc3)C2=O)sc1S(N)(=O)=O [Compound 309] | < 100 | 
51 | Cc1nc(N2CCN(c3ccc(-c4cc(F)cc5nsnc45)cc3)C2=O)sc1S(N)(=O)=O [Example 314] |  | 28
52 | Cc1ncsc1-c1ccc(N2CCCN(c3nc(C)c(S(N)(=O)=O)s3)C2=O)cc1 [Compound 50] | 100 to 1000 | 
53 | Cc1nc(N2CCCN(c3ccc(-c4cc(C#N)cc5c4ccn5C)cc3)C2=O)sc1S(N)(=O)=O [Compound 302] | 100 to 1000 | 
54 | Cc1nc(N2CCCN(c3ccc(-c4ccccc4/C=C\C#N)cc3)C2=O)sc1S(N)(=O)=O [Compound 21] | 100 to 1000 | 
55 | Cc1nc(N2CCCN(c3ccc(-c4cc(F)cc5c(C)c(C(C)(C)O)sc45)cc3)C2=O)sc1S(N)(=O)=O [Compound 282] | 100 to 1000 | 
56 | Cc1nc(N2CCCN(c3ccc(-n4cnc5ccccc54)cc3)C2=O)sc1S(N)(=O)=O [Compound 94] | 1000 to 5000 | 
57 | Cc1nc(N2C[C@@H](C)CN(c3ccc(-c4ccccc4F)cc3)C2=O)sc1S(N)(=O)=O [Compound 317] | < 100 | 
58 | Cc1nc(N2CCCN(c3ccc(-c4cc(C(F)(F)F)cc5nn(C)cc45)cc3)C2=O)sc1S(N)(=O)=O [Compound 289] | 1000 to 5000 | 
59 | Cc1nc(N2CCCN(c3ccc(-c4ccccc4F)cc3)C2=O)sc1[S@](C)(=N)=O (single isomer, unassigned) [Compound 143] | < 100 | 
60 | COC1CN(c2ccc(-c3cc(F)ccc3F)cc2)C(=O)N(c2nc(C)c(S(N)(=O)=O)s2)C1 (centres unmarked) [Compound 357, 2-(3-(2′,5′-difluoro-[1,1′-biphenyl]-4-yl)-5-methoxy-2-oxotetrahydropyrimidin-1(2H)-yl)-4-methylthiazole-5-sulfonamide] | 1000 to 5000 | 
61 | Cc1nc(N2CCCN(c3ccc(-c4cccn5cncc45)cc3)C2=O)sc1S(N)(=O)=O [Compound 65] | 100 to 1000 | 
62 | Cc1nc(N2CCCN(c3ccc(-c4cc(C(F)(F)F)cc5c4c(F)cn5C)cc3)C2=O)sc1S(N)(=O)=O [Compound 297] | 100 to 1000 | 
